# What was measured:
# [1] = test system: TNFα production in THP-1 cells; test: TNFα production assay in LPS-stimulated THP-1 cells; type: cell-based; conditions: Homo sapiens, 6 hours, ELISA, read-out: IC50 in TNF-α production assay
# Experimental: THP-1 (human monocytic cell line) obtained from ATCC was cultured in RPMI-1640 supplemented with 10% FBS, sodium pyruvate, HEPES, 2-mercaptoethanol, Penicillin/Streptomycin. To a 96-well plate containing THP-1 cells (1.4×10^6/mL, 2.5×10^5 cells/well) in 180 μL RPMI-1640 was added 20 μL of the test compound in 10% DMSO. […] After one hour at 37° C., 20 μL of 1000 ng/mL lipopolysaccharide (LPS from Salmonella typhosa, Sigma) was added to each well. After an additional 6 hours at 37° C., the supernatants were collected following a 5 minute centrifugation of the plate to pellet the cells. The amount of TNFα in these supernatants was then measured using a TNFα-specific ELISA (Pharmingen). […] IC50 values were calculated from the percentage inhibition at various doses.
# Pharmacokinetics in mice = type: in vivo; conditions: mouse, plasma, BALB/c mice
# Experimental: Compound 6 was administered to BALB/c mice either per orally (p.o.) or intravenously (i.v.). Blood was drawn at various times (0.5 to 4 hours) after dosing and the plasma drug levels measured by liquid chromatography-mass spectral analysis.
# [2] = test system: collagen-induced arthritis; test: Murine model of collagen-induced arthritis; type: in vivo, DBA/1 LacJ male mice; set-up: Cumulative arthritis injury score (±sem): scale not given here
# Experimental: DBA/1 LacJ male mice 6-8 wk (Jackson Laboratories; Bar Harbor, Me.) were immunized subcutaneously on day 0 and on day 21 with 100 μg bovine type 11 collagen in 0.1 mL RIBI Adjuvant System (RAS) with monophosphoryl lipid A(RIBI lmmunoChem Research; Hamilton, Mont.). In this model, disease onset occurs within one week after the second collagen injection.
# When treated in a preventative mode, test compounds were administered daily beginning on day 0 through day 41.
# In the established (i.e. therapeutic) mode, the administration of test compounds was initiated only after paw inflammation of an animal had achieved a score of 2 (as defined below), at which time, the animal was randomly assigned to a treatment group. Treatment continued daily for all four paws as described below.
# Following the Day 21 booster, mice were regularly monitored for the development and severity of paw inflammation.
# Clinical paw scores for all four paws were summed for each mouse and the mean ± standard deviation (SD) was calculated for each treatment group.
# Histological scoring involved evaluating histologically and grading semi-quantitatively tibiotarsal joints of sacrificed mice, specifically examining the severity of inflammation, synovial hyperplasia, bone resorption, and cartilage erosion. Cumulative arthritis injury scores for each group were compared by the nonparametric Kruskal-Wallis analysis of variance.
# DSS-induced colitis = test: Dextran sulfate sodium-induced murine model of inflammatory bowel disease; type: in vivo, Swiss-Webster mice; conditions: for Mean clinical score: colon, scale 0-3
# Experimental: In this model, Swiss-Webster mice (8 weeks old, 5 animals per treatment group) were given 6% DSS in their drinking water for 7 consecutive days to induce intestinal inflammation. Test compounds were administered daily throughout the study. On day 9, animals were sacrificed and the colons were removed for clinical and histological evaluation.
# Clinical scoring was determined by the gross clinical evaluation of the injury on a scale from 0 (normal) to 3 (severe) as detailed in Table 7.
# For histological scoring, colon sections were graded as to the severity of crypt injury and the degree of inflammation. The crypt injury was scored as detailed in Table 8, wherein the crypt is part of the glandular make-up of the colon.
# Tissue involvement was scored as detailed in Table 9. Any signs of crypt injury or inflammation, regardless of severity, constitute tissue involvement.
# The injury histological score is defined as the product of the crypt injury grade and the tissue involvement grade. The scoring of severity of inflammation is detailed in Table 10.
# The inflammation histological score is the product of the severity of inflammation grade and the extent of tissue involvement grade. Crypt injury and inflammatory scoring were performed on each colon section and a mean score and standard error were determined for each section. Cumulative crypt injury and inflammatory scores for each group were determined. The results of Table 12 present the cumulative injury and inflammation scores of colons in mice with DSS-induced colitis.
# [3] = test system: ovalbumin-induced inflammatory cell infiltration in the lung; test: Ovalbumin-induced inflammatory cell infiltration into the lung of sensitized mice; type: in vivo, BALB/c mice; conditions: for Total Inflammatory Cells in BAL: days 14 to 17, BAL on day 18
# Experimental: In the pulmonary inflammation animal model, BALB/c mice were sensitized by an intraperitoneal injection of 0.1 mL alum-precipitated antigen containing 40 μg ovalbumin adsorbed to aluminum hydroxide gel on days 0 and 10. On day 14, animals received intranasal challenge with 100 μg ovalbumin in 50 μl saline (PBS). Mice were injected intraperitoneally with antigen to sensitize the animals prior to intranasal challenge to induce lung inflammation. Administration of the test compound was given on days 14 to 17. On day 18, bronchoalveolar lavage fluid (BAL) was collected for measurements of total inflammatory cell infiltration (eosinophils, monocytes, lymphocytes, and neutrophils).
# LPS-induced serum TNFα = LPS-induced serum TNFα in mice; type: in vivo, BALB/c mice; conditions: p.o.
# Experimental: As a measure of activity against NF-κB-dependent TNFα production in vivo, test compounds were administered to BALB/c mice subsequently challenged with an intravenous dose of E. coli LPS (1 μg in 100 μL phosphate-buffered saline). One hour after LPS challenge, blood was collected from the mice and the levels of TNFα in the serum measured by EIA(R&D Systems). Inhibition was calculated from control animals which received LPS challenge with no test compound.
# [4] = test system: transplanted hearts (graft rejection); test: Murine neonatal heart to ear transplants, graft survival; type: in vivo, BALB/c mice
# Experimental: Cardiac transplants were performed as described by Fulmer et al. (Fulmer, R. I. et al. The American Journal of Anatomy 113:273-281, 1963). Neonatal hearts were obtained from newborn C57BL/6 mice not more than 48 hours after birth. The hearts were transplanted into recipient BALB/c mice, which were prepared under anesthesia by making a small incision at the base of the ear pinna and forming a pocket by gently lifting the skin away from the ear. The incision permitted the insertion of the donor heart subcutaneously into the pocket. […] The pulsations of the heart were measured by contractile activity with an appropriate electrocardiogram (ECG) monitoring device. The contractile activity of the transplanted graft was monitored daily. The time of graft rejection was defined as the day after transplantation on which contractile activity ceased. Without therapeutic intervention, the host mounts an immune response to the transplanted heart (i.e., graft rejection). This immune response causes the transplanted heart to cease beating typically 10-14 days post transplantation.
# Test compounds were administered in daily doses either alone or in combination with other therapies, such as Cyclosporine A (15 mg/kg, orally, “p.o.”) or CTLA4-Ig (200 μg in 200 μl PBS given intraperitoneally on only days 0, 2, and 4). Table 2 presents the effects of test compounds on median survival time of transplanted hearts, either alone or in combination with Cyclosporine A (CsA). Table 3 presents the effects of test compounds on median survival time of transplanted hearts, either alone or in combination with CTLA4-Ig.
structure (smiles),measurement,setting,value
"Cc1ccc2nc(NCCN)c3ncc(C)n3c2c1 [Compound 6, 4(2′-aminoethyl)amino-1,8-dimethylimidazo(1,2-a)quinoxaline]",IC50,[1],4 µM
same,half-life,"Pharmacokinetics in mice; iv, apparent terminal elimination phase after i.v. dose",7.9 h
same,bioavailability,"Pharmacokinetics in mice; oral, AUC p.o. divided by AUC i.v.",100%
same,Cumulative arthritis injury score (±sem),"[2]; established mode, 10 mg/kg, two weeks after disease onset",4.2 ± 1.0
same,disease progression,"[2]; established mode, 30 mg/kg p.o., vs vehicle",significantly inhibited disease progression
same,Cumulative arthritis injury score (±sem),"[2]; established mode, 30 mg/kg, two weeks after disease onset",2.1 ± 0.9
same,disease progression,"[2]; established mode, 100 mg/kg p.o.",significant disease resolution
same,Cumulative arthritis injury score (±sem),"[2]; established mode, 100 mg/kg, two weeks after disease onset",0.9 ± 0.5
same,Cumulative arthritis injury score (±sem),"[2]; preventative mode, 10 mg/kg",5.3 ± 1.7
same,Cumulative arthritis injury score (±sem),"[2]; preventative mode, 30 mg/kg",0.4 ± 0.4
same,disease onset,"[2]; preventative mode, 30 mg/kg p.o. daily",inhibited disease onset
same,Cumulative arthritis injury score (±sem),"[2]; preventative mode, 30 mg/kg, listed as compound 6, 30 mg/kg",0.4
same,Cumulative arthritis injury score (±sem),"[2]; preventative mode, 100 mg/kg",0.0
same,incidence of disease (FIG. 1),"[2]; preventative mode, 100 mg/kg daily, vs vehicle",significant difference in incidence of disease
same,disease onset,"[2]; preventative mode, 100 mg/kg p.o. daily",prevented any disease onset
same,Cumulative arthritis injury score (±sem),"[2]; preventative mode, 100 mg/kg, listed as compound 6, 100 mg/kg",0
same,Group Mean Inflammation Histological Score,DSS-induced colitis; 30 mg/kg p.o. daily,7.58 ± 0.81
same,Group Mean Injury Histological Score,DSS-induced colitis; 30 mg/kg p.o. daily,4.83 ± 0.55
same,Mean clinical score,DSS-induced colitis; 30 mg/kg p.o. daily,1.10 ± 0.49
same,Group Mean Inflammation Histological Score,DSS-induced colitis; 100 mg/kg p.o. daily,6.82 ± 0.85
same,Group Mean Injury Histological Score,DSS-induced colitis; 100 mg/kg p.o. daily,5.66 ± 0.87
same,Mean clinical score,DSS-induced colitis; 100 mg/kg p.o. daily,1.00 ± 0.35
same,clinical and histological score vs untreated mice,DSS-induced colitis; daily administration,statistically significant decrease in clinical and histological score
same,Total Inflammatory Cells in BAL,[3]; 30 mg/kg p.o.,2.8 × 10^6 ± 1.3 × 10^6
same,Total Inflammatory Cells in BAL,[3]; 100 mg/kg p.o.,2.2 × 10^6 ± 0.3 × 10^6
same,total inflammatory cells in the lungs vs untreated mice,[3]; administration after ovalbumin challenge,statistically significant decrease in total inflammatory cells in the lungs
same,inhibition of the LPS-induced serum TNFα levels in vivo,LPS-induced serum TNFα; 10 mg/kg,27-63%
same,inhibition of the LPS-induced serum TNFα levels in vivo,LPS-induced serum TNFα; 30 mg/kg,53-89%
same,inhibition of the LPS-induced serum TNFα levels in vivo,LPS-induced serum TNFα; 50 mg/kg,83-92%
same,Median Graft Survival Time,"[4]; CTLA4-Ig (200 μg i.p. days 0, 2, 4) plus Compound 6 50 mg/kg p.o.",32 days
same,Median Graft Survival Time,"[4]; CTLA4-Ig (200 μg i.p. days 0, 2, 4) plus Compound 6 100 mg/kg p.o.",>60 days
same,Median Graft Survival Time,[4]; Compound 6 50 mg/kg p.o. alone,12 days
same,Median Graft Survival Time,[4]; Cyclosporine A 15 mg/kg p.o. plus Compound 6 50 mg/kg p.o.,29 days
same,effect of combination with cyclosporine A or CTLA4-Ig on graft survival,[4]; co-administered with cyclosporine A or CTLA4-Ig,synergistic effects
